Tests used:
wheat = experiment: Test A postemergence; type: in vivo, Triticum aestivum
How it was run: (§1)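 Greenhouse pot test, loam/sand soil. Formulation: non-phytotoxic solvent mix plus surfactant. Pre: directed spray onto soil after sowing. Post: plants at 1–2 leaf, 2–10 cm. Rated visually vs untreated controls at ~10 d, 0 (no effect) to 100 (complete control).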

morningglory [1] = experiment: Test A preemergence; type: in vivo, Ipomoea spp.
How it was run: as §1

barnyardgrass [2] = experiment: Test B flooded paddy test; type: in vivo, Echinochloa crus-galli; details: Flood, 250 g ai/ha, 0 to 100 scale where 0 is no effect and 100 is complete control
How it was run: (§2)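 Visual ratings on a 0 to 100 scale, where 100 means complete control, compared treated plants with controls after 13 to 15 days in a greenhouse. Treatment went into paddy water 3 cm deep over the soil, applied to plants at the 2-leaf stage.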

large (Lg) crabgrass [3] = experiment: Test A postemergence; type: in vivo, Digitaria sanguinalis
How it was run: as §1

corn = experiment: Test A preemergence; type: in vivo, Zea mays
How it was run: as §1

large (Lg) crabgrass [4] = experiment: Test A preemergence; type: in vivo, Digitaria sanguinalis
How it was run: as §1

Heteranthera limosa = experiment: Test B flooded paddy test; type: in vivo; details: Flood, 250 g ai/ha, 0 to 100 scale where 0 is no effect and 100 is complete control
How it was run: as §2

morningglory [5] = experiment: Test A postemergence; type: in vivo, Ipomoea spp.
How it was run: as §1

barnyardgrass [6] = experiment: Test A preemergence; type: in vivo, Echinochloa crus-galli
How it was run: as §1

blackgrass = experiment: Test C preemergence; type: in vivo, Alopecurus myosuroides; details: for Blackgrass plant response rating: preemergence; for Plant response rating, Blackgrass: Preemergence, scale 0 to 100, 0 no effect, 100 complete control
Source text: (§3) Seeds of plant species selected from blackgrass (Alopecurus myosuroides), Italian ryegrass (Lolium multiflorum), wheat, winter (winter wheat, Triticum aestivum), galium (catchweed bedstraw, Galium aparine), corn (Zea mays), large (Lg) crabgrass (Digitaria sanguinalis), giant foxtail (Setaria faberii), johnsongrass (Sorghum halepense), lambsquarters (Chenopodium album), morningglory (Ipomoea coccinea), yellow nutsedge (Cyperus esculentus), pigweed (Amaranthus retroflexus), ragweed (common ragweed, Ambrosia elatior), soybean (Glycine max), barnyardgrass (Echinochloa crus-galli), oilseed rape (Brassica napus), waterhemp (common waterhemp, Amaranthus rudis), kochia (Kochia scoparia), wild oat (Avena fatua), surinam grass (Brachiaria decumbens), foxtail, green (green foxtail, Setaria viridis), goosegrass (Eleusine indica), bromegrass, downy (downy bromegrass, Bromus tectorum), nightshade (eastern black nightshade, Solanum ptycanthum), cocklebur (common cocklebur, Xanthium strumarium), cupgrass, woolly (woolly cupgrass, Eriochloa villosa), bermudagrass (Cynodon dactylon), sunflower, (common oilseed sunflower, Helianthus annuus), Russian thistle (Salsola kali), and velvetleaf (Abutilon theophrasti) were planted into a blend of loam soil and sand and treated preemergence with test chemicals formulated in a non-phytotoxic solvent mixture which included a surfactant.
(§4) At the same time, plants selected from these crop and weed species and also barley, winter (winter barley, Hordeum vulgare), windgrass (Apera spica-venti), chickweed (common chickweed, Stellaria media), deadnettle (henbit deadnettle, Lamium amplexicaule), and canarygrass (littleseed canarygrass, Phalaris minor) were planted in pots containing Redi-Earth® planting medium (Scotts Company, 14111 Scottslawn Road, Marysville, Ohio 43041) comprising spaghnum peat moss, vermiculite, wetting agent and starter nutrients and treated with postemergence applications of test chemicals formulated in the same manner. Plants ranged in height from 2 to 18 cm (1- to 4-leaf stage) for postemergence treatments. Treated plants and controls were maintained in a greenhouse for 13 to 15 days, after which time all species were compared to controls and visually evaluated. Plant response ratings, summarized in Table C, are based on a scale of 0 to 100 where 0 is no effect and 100 is complete control. A dash (-) response means no test result.

wheat, winter = experiment: Test C preemergence; type: in vivo, Triticum aestivum; details: for Wheat plant response rating: preemergence; for Plant response rating, Wheat: Preemergence, scale 0 to 100, 0 no effect, 100 complete control
Source text: as §3, §4

large (Lg) crabgrass [7] = experiment: Test C preemergence; type: in vivo, Digitaria sanguinalis; details: for Crabgrass, Large plant response rating: preemergence; for Plant response rating, Crabgrass, Large: Preemergence, scale 0 to 100, 0 no effect, 100 complete control
Source text: as §3, §4

Italian ryegrass = experiment: Test C preemergence; type: in vivo, Lolium multiflorum; details: for Ryegrass, Italian plant response rating: preemergence; for Plant response rating, Ryegrass, Italian: Preemergence, scale 0 to 100, 0 no effect, 100 complete control
Source text: as §3, §4

[8] = 125 g ai/ha, 0 to 100 scale where 0 is no effect and 100 is complete control
[9] = 500 g ai/ha, 0 to 100 scale, 0 no effect, 100 complete control
[10] = 500 g ai/ha, 0 to 100 scale, 0 no effect, 100 complete control, approx. 10 days
[11] = 31 g ai/ha, 0 to 100 scale, 0 no effect, 100 complete control
[12] = 16 g ai/ha, scale 0 to 100 (0 no effect, 100 complete control)
[13] = 62 g ai/ha, scale 0 (no effect) to 100 (complete control)
[14] = 125 g ai/ha, scale 0 (no effect) to 100 (complete control)
[15] = 500 g ai/ha, 0 to 100 scale where 0 is no effect and 100 is complete control
[16] = 31 g ai/ha, 0 to 100 scale where 0 is no effect and 100 is complete control, visual, approximately 10 days

Row | SMILES | Plant response rating, Barnyardgrass (barnyardgrass [2]) | Plant response rating, Ducksalad (Heteranthera limosa) | Plant response rating, Wheat (wheat; [11]) | Blackgrass plant response rating (blackgrass; [12]) | Blackgrass plant response rating (blackgrass; [13]) | Blackgrass plant response rating (blackgrass; [14]) | Plant response rating, Blackgrass (blackgrass; 31 g ai/ha) | Wheat plant response rating (wheat, winter; [12]) | Wheat plant response rating (wheat, winter; [13]) | Wheat plant response rating (wheat, winter; [14]) | Crabgrass, Large plant response rating (large (Lg) crabgrass [7]; [12]) | Crabgrass, Large plant response rating (large (Lg) crabgrass [7]; [13]) | Crabgrass, Large plant response rating (large (Lg) crabgrass [7]; [14]) | Plant response rating, Crabgrass, Large (large (Lg) crabgrass [7]; 31 g ai/ha) | Ryegrass, Italian plant response rating (Italian ryegrass; [12]) | Ryegrass, Italian plant response rating (Italian ryegrass; [13]) | Ryegrass, Italian plant response rating (Italian ryegrass; [14]) | Plant response rating, Barnyardgrass (barnyardgrass [6]; [8]) | Wheat plant response rating (wheat; [8]) | Plant response rating, Barnyardgrass (barnyardgrass [6]; [16]) | further results
1 | FC(F)(F)c1ccn(-c2ccccc2Oc2ncc(Cl)cn2)n1 [Compound 2, 5-chloro-2-[2-[3-(trifluoromethyl)-1H-pyrazol-1-yl]phenoxy]pyrimidine] | – | – | – | – | – | – | – | – | – | – | – | – | – | – | – | – | – | – | – | – | plant injury at 125 g/ha (wheat; Triticum aestivum, post-emergence, 240 h, 125 g ai/ha, 0 to 100 scale where 0 is no effect and 100 is complete control, read-out: Plant response rating, Wheat): 0%; plant injury at 500 g/ha (wheat; Triticum aestivum, post-emergence, 240 h, 500 g ai/ha, 0 to 100 scale, 0 no effect, 100 complete control, read-out: Plant response rating Wheat): 0%; pest or weed control at 500 g/ha (morningglory [1]; Ipomoea, pre-emergence, 240 h, 500 g ai/ha, 0 to 100 scale, 0 no effect, 100 complete control, approx. 10 days, read-out: Morningglory plant response rating): 20%; pest or weed control at 250 g/ha (barnyardgrass [2]; Echinochloa crus-galli, read-out: Plant response rating, Barnyardgrass): 0%; pest or weed control at 125 g/ha (large (Lg) crabgrass [3]; Digitaria sanguinalis, post-emergence, 240 h, 125 g ai/ha, 0 to 100 scale where 0 is no effect and 100 is complete control, read-out: Plant response rating, Crabgrass, Large): 20%; pest or weed control at 500 g/ha (large (Lg) crabgrass [3]; Digitaria sanguinalis, post-emergence, 240 h, 500 g ai/ha, 0 to 100 scale, 0 no effect, 100 complete control, read-out: Plant response rating Crabgrass, Large): 60%; plant injury at 125 g/ha (corn; Zea mays, pre-emergence, 240 h, 125 g ai/ha, 0 to 100 scale where 0 is no effect and 100 is complete control, read-out: Corn plant response rating): 0%; plant injury at 500 g/ha (corn; Zea mays, pre-emergence, 240 h, 500 g ai/ha, 0 to 100 scale, 0 no effect, 100 complete control, approx. 10 days, read-out: Corn plant response rating): 30%; pest or weed control at 125 g/ha (large (Lg) crabgrass [4]; Digitaria sanguinalis, pre-emergence, 240 h, 125 g ai/ha, 0 to 100 scale where 0 is no effect and 100 is complete control, read-out: Crabgrass, Large plant response rating): 80%; pest or weed control at 500 g/ha (large (Lg) crabgrass [4]; Digitaria sanguinalis, pre-emergence, 240 h, 500 g ai/ha, 0 to 100 scale, 0 no effect, 100 complete control, approx. 10 days, read-out: Crabgrass, Large plant response rating): 100%; pest or weed control at 250 g/ha (Heteranthera limosa; Heteranthera limosa, read-out: Plant response rating, Ducksalad): 45%; pest or weed control at 125 g/ha (morningglory [5]; Ipomoea, post-emergence, 240 h, 125 g ai/ha, 0 to 100 scale where 0 is no effect and 100 is complete control, read-out: Plant response rating, Morningglory): 30%; pest or weed control at 500 g/ha (morningglory [5]; Ipomoea, post-emergence, 240 h, 500 g ai/ha, 0 to 100 scale, 0 no effect, 100 complete control, read-out: Plant response rating Morningglory): 70%; pest or weed control at 125 g/ha (barnyardgrass [6]; Echinochloa crus-galli, pre-emergence, 240 h, 125 g ai/ha, 0 to 100 scale where 0 is no effect and 100 is complete control, read-out: Barnyardgrass plant response rating): 30%; pest or weed control at 500 g/ha (barnyardgrass [6]; Echinochloa crus-galli, pre-emergence, 240 h, 500 g ai/ha, 0 to 100 scale, 0 no effect, 100 complete control, approx. 10 days, read-out: Barnyardgrass plant response rating): 90%
2 | Clc1cnc(Oc2ccccc2-n2cc(Cl)cn2)nc1 [Compound 3] | 0 | 90 | – | – | – | – | – | – | – | – | – | – | – | – | – | – | – | – | – | – | Plant response rating, Wheat (wheat; [8]): 0; Plant response rating, Wheat (wheat; [9]): 0; Morningglory plant response rating (morningglory [1]; [8]): 0; Morningglory plant response rating (morningglory [1]; [10]): 20; Plant response rating, Crabgrass, Large (large (Lg) crabgrass [3]; [8]): 10; Plant response rating, Crabgrass, Large (large (Lg) crabgrass [3]; [9]): 80; Corn plant response rating (corn; [8]): 0; Corn plant response rating (corn; [10]): 10; Crabgrass, Large plant response rating (large (Lg) crabgrass [4]; [8]): 90; Crabgrass, Large plant response rating (large (Lg) crabgrass [4]; [10]): 100; Plant response rating, Morningglory (morningglory [5]; [8]): 10; Plant response rating, Morningglory (morningglory [5]; [9]): 70; Barnyardgrass plant response rating (barnyardgrass [6]; [8]): 60; Barnyardgrass plant response rating (barnyardgrass [6]; [10]): 100
3 | FCc1cccc(Oc2ncc(F)cn2)c1-n1cc(C(F)(F)F)cn1 [Compound 118] | 50 | 90 | 20 | 35 | 90 | 95 | 80 | 0 | 10 | 90 | 30 | 85 | 100 | 80 | 0 | 70 | 100 | 100 | – | – | Plant response rating, Wheat (wheat, winter; 31 g ai/ha): 0; Plant response rating, Ryegrass, Italian (Italian ryegrass; 31 g ai/ha): 40; Barnyardgrass plant response rating (0 to 100 scale) (barnyardgrass [6]; 31 g ai/ha): 50
4 | COc1cnn(-c2c(C#N)cccc2Oc2ncc(Cl)cn2)c1 [Compound 137] | 0 | 30 | – | 0 | 5 | 10 | 0 | 0 | 0 | 0 | 10 | 98 | 100 | 70 | 0 | 0 | 0 | 20 | 30 | – | Plant response rating, Wheat (wheat; [15]): 70; Barnyardgrass plant response rating (barnyardgrass [6]; [15]): 100
5 | N#Cc1cnn(-c2c(CF)cccc2Oc2ncc(F)cn2)c1 [Compound 151] | 0 | 70 | 20 | 0 | 10 | 90 | 0 | 0 | 0 | 40 | 5 | 98 | 100 | 85 | 0 | 35 | 45 | 60 | 30 | 20 | –
6 | FCc1cccc(Oc2ncc(Cl)cn2)c1-n1cc(Cl)cn1 [Compound 250] | 0 | 70 | 0 | 0 | – | 90 | – | 0 | – | 0 | 75 | – | 100 | – | 0 | – | 15 | – | – | 10 | Plant response rating, Wheat (wheat; 125 g ai/ha, 0 to 100 scale, 0 no effect, 100 complete control): 0; Plant response rating, Blackgrass (blackgrass; 62 g ai/ha): 70; Plant response rating, Wheat (wheat, winter; 62 g ai/ha): 0; Plant response rating, Crabgrass, Large (large (Lg) crabgrass [7]; 62 g ai/ha): 98; Plant response rating, Ryegrass, Italian (Italian ryegrass; 62 g ai/ha): 5; Barnyardgrass plant response rating (0 to 100 scale, 0 is no effect, 100 is complete control) (barnyardgrass [6]; 125 g ai/ha): 90

Source: patent US9695155B2, “Herbicidal substituted pyrimidinyloxy benzene compounds” (E. I. DU PONT DE NEMOURS AND COMPANY, priority 2013, dated 2017)
